Experimental data reported in patent EP0321849A2, “Method for the enzymatic hydrolysis of alpha-aminoadipinyl monoamino compounds” (HOECHST AKTIENGESELLSCHAFT, priority 1987, dated 1989).

B1: γ-Glutamyltranspeptidase (γ-GTP) (Bacillus subtilis subsp. subtilis str. 168) (protein)
chain 1: DEYKQVDVGKDGMVATAHPLASEIGADVLKKGGNAIDAAVAIQFALNVTEPMMSGIGGGGFMMVYDGKTKDTTIIDSRERAPAGATPDMFLDENGKAIPFSERVTKGTAVGVPGTLKGLEEALDKWGTRSMKQLITPSIKLAEKGFPIDSVLAEAISDYQEKLSRTAAKDVFLPNGEPLKEGDTLIQKDLAKTFKLIRSKGTDAFYKGKFAKTLSDTVQDFGGSMTEKDLENYDITIDEPIWGDYQGYQIATTPPPSSGGIFLLQMLKILDHFNLSQYDVRSWEKYQLLAETMHLSYADRASYAGDPEFVNVPLKGLLHPDYIKERQQLINLDQVNKKPKAGDPWKYQEGSANYKQVEQPKDKVEGQ
chain 2: TTHFTVADRWGNVVSYTTTIEQLFGTGIMVPDYGVILNNELTDFDAIPGGANEVQPNKRPLSSMTPTILFKDDKPVLTVGSPGGATIISSVLQTILYHIEYGMELKAAVEEPRIYTNSMSSYRYEDGVPKDVLSKLNGMGHKFGTSPVDIGNVQSISIDHENGTFKGVADSSRNGAAIGINLKRK
notes: Das Enzym kommt in Mikroorganismen periplasmatisch und extrazellulär vor; endogenous in cells; host or cells: Bacteria cultured in nutrient medium (genera Pseudomonas, Proteus, Arthrobacter, Bacillus); preferred Bac. subtilis IFO 3025

Experiments:
γ-GTP [1] = molecular target: T1, γ-GTP (Bacillus subtilis, UniProt P54422); assay: Inhibition of γ-GTP by inhibitors (irreversible / reversible); type: biochemical; parameters: Das Enzym kommt in Mikroorganismen periplasmatisch und extrazellulär vor; endogenous in cells; host or cells: Bacteria cultured in nutrient medium (genera Pseudomonas, Proteus, Arthrobacter, Bacillus); preferred Bac. subtilis IFO 3025; conditions: in the presence of the substance; kind of inhibition (irreversible or reversible)
γ-GTP [2] = molecular target: T1, γ-GTP; assay: Enzymatic hydrolysis of α-aminoadipinyl cephalosporins by γ-GTP enzyme concentrate (preparative conversion); type: biochemical, Bac. subtilis IFO 3025; parameters: Das so gewonnene Kulturfiltrat enthält 1350 U γ-GTP-Aktivität; endogenous in cells; host or cells: Bacillus subtilis IFO 3025 (natural producer); Culture filtrate, ammonium sulfate precipitation, DEAE-cellulose
Method: Analog Beispiel 1 wird eine Vorkultur mit Bac. subtilis IFO 3025 angezogen. 50 ml dieser Kultur dienen als Inokulum für 2 l Hauptkulturlösung in einem 5 l-Fermenter. Die Anzucht des Stammes erfolgt bei 34°C und einem Sauerstoffpartialdruck von 70 %. Die Bildung der γ-GTP wird photometrisch verfolgt und die Kultur bei maximalem Enzymtiter abgeerntet. Unter den gegebenen Bedingungen wird ein γ-GTP-Titer von 150 mU/ml Kulturlösung erreicht.
9 l Kulturlösung werden mittels Cross-Flow-Filtration (Ausschlußgrenze 300 000 Dalton) in Kulturfiltrat und Zellmasse getrennt. Das so gewonnene Kulturfiltrat enthält 1350 U γ-GTP-Aktivität.
Durch Zugabe von Ammoniumsulfat ad 70 % d. S. wird das Enzym gefällt und in einem 1/10 des Volumens wieder aufgenommen. Nach Dialyse gegen 20 mM Tris, pH 8,0, wird über eine DEAE-Cellulose Säule (DE 52, Whatman) das Enzym weiter gereinigt. Die aktiven Eluate werden vereinigt und konzentriert. Ein so gewonnenes γ-GTP-Präparat (mit ca. 25 U γ-GTP/ml) wird für die Umsetzungen verwendet.
Für eine präparative Umsetzung von Desacetyl-CPC wird folgender Ansatz gewählt: 100 µl Enzymkonzentrat, hergestellt nach Beispiel 3, und 100 µl 40 mM Desacetyl-CPC, gelöst in 20 mM Kaliumphosphatpuffer, pH 7,3 werden bei einer Temperatur von 33°C inkubiert. […]

[3] = substrate: N[C@@H](CCC(=O)Nc1ccc([N+](=O)[O-])cc1)C(=O)O; assay: Km determination of γ-GTP with L-γ-Glutamylparanitroanilid as substrate; type: biochemical; conditions: other: substrate of γ-GTP, pH 8, 37.0 °C

Molecule | Hemmung der γ-GTP (γ-GTP [1]) | other results
[N-]=[N+]=CC(=O)OC[C@H](N)C(=O)O [Azaserin] | irreversibel gehemmt | –
N[C@H](CCCC(=O)N[C@@H]1C(=O)N2C(C(=O)O)=C(CO)CS[C@H]12)C(=O)O [Desacetyl-CPC] | – | Desacetyl-7-Aminocephalosporansäure formed (γ-GTP [2]; 100 µl enzyme concentrate + 100 µl 40 mM substrate in 20 mM potassium phosphate buffer pH 7,3, 33°C): ≤ 16%
CC(=O)OCC1=C(C(=O)O)N2C(=O)[C@@H](NC(=O)CCC[C@@H](N)C(=O)O)[C@H]2SC1 [CPC, Cephalosporin C] | – | 7-Aminocephalosporansäure released (γ-GTP [2]; incubation conditions as in Beispiel 4 (pH 7,3, 33°C)): 3%
[Cu] [Kupfer] | reversible Hemmung | –
CC(=O)OCC1=C(C(=O)O)N2C(=O)[C@@H](N)[C@H]2SC1 [7-Aminocephalosporansäure] | reversible Hemmung | –
[Hg] [Quecksilber] | reversible Hemmung | –
NC(=O)CI [Jodacetamid] | irreversibel gehemmt | –
B1 | – | Km [3]: 17,8 µM
